{"source": "patent US8232315B2", "about": "“Methods for treating drug addiction and improving addiction-related behavior” (SK Biopharmaceuticals Co., Ltd., priority 2009, dated 2012)", "key": {"[1]": {"test_system": "rhesus monkeys trained to self-administer cocaine", "assay": "Cocaine self-administration, dose-ranging studies with peak unit dose of i.v. cocaine and food components", "type": "in vivo, rhesus monkeys (Macaca mulatta)", "experimental": "(§1) The test compound (O-carbamoyl-(D)-phenylalaminol) was tested for the effects on cocaine self-administration in rhesus monkeys. Rhesus monkeys were trained to self-administer cocaine (0.032 mg/kg/inj, i.v.) and 1 g banana-flavored food pellets during 2-hr experimental sessions in the Rapid Assessment Procedure. Each session consisted of four 20-min components of drug availability (100-min), each separated by a 5-min timeout period. The four components of drug availability were preceded and followed by […] components of food availability. During training, unit doses of cocaine were varied across components of the session (0.001-0.03 or 0.01-0.32 mg/kg/inj) to provide full dose effect curves for cocaine self-administration. The position and slope of the dose-effect curve varied among monkeys and, generally, was represented by an inverted-U shape function characteristic for cocaine self-administration under fixed-ratio schedules. In some sessions, the unit dose of cocaine at the peak of the dose-effect curve for i.v. self-administration (0.0032 or 0.032 mg/kg/inj) was kept constant across components of the session. After baseline cocaine dose-effect curves and the effects of peak dose availability throughout the session were stable, experiments with test compound were begun.\nTwo types of cocaine self-administration experiments were conducted to evaluate pretreatment with test compound: (1) test compound dose-ranging studies and (2) effects of a single dose of test compound on cocaine dose-effect curves. In initial dose-ranging experiments, test compound was studied in individual monkeys by administering i.m. doses of 10-32 mg/kg 30-min before the session.\n(§2) Subjects. Five male rhesus monkeys (Macaca mulatta), 89B013, 96D155, 97D105, RQ22 15, and 93N082, were trained to respond for the delivery of 1-g banana pellets under a program of gradually increasing values of a fixed-ratio (FR) schedule until performance was maintained under the terminal FR 30 response schedule. Then, a double-lumen intravenous catheter was surgically implanted under aseptic-conditions in each monkey. Subsequently, monkeys were trained to respond for cocaine (see below). All monkeys were maintained under identical housing conditions as specified under contract DA-7-8073. Individual monkeys had visual, auditory, and olfactory contact with other monkeys, and several types of enrichment devices were provided in the home chamber.\n(§3) Apparatus. All experimental equipment was identical to that used in our previously described drug self-administration studies. Briefly, each monkey was housed individually in a well-ventilated stainless steel chamber (64×64×79 cm). The home cages of all monkeys were modified to include an operant panel (28×28 cm) mounted on the front wall and fitted with response keys that could be trans-illuminated by red or green stimulus lights (LEDs). The operant panel also supported an externally-mounted pellet dispenser (Gerbrands, Model G5210) that delivered 1 gm fruit-flavored food pellets (P. J. Noyes Co., Lancaster, N.H.) to a food receptacle mounted on the cage beneath the operant response panel. Two syringe pumps (Model B5P-IE, Braintree Scientific, Braintree, Mass.; or Model 980210, Harvard Apparatus, South Natick, Mass.) were mounted above each cage for delivery of saline or drug solutions through the double-lumen intravenous catheters. Operation of the operant panels and data collection were accomplished with an LBM-compatible computer supplied by Med Associates, Inc., and located in an adjacent room. The experimental control hardware was supplied by Med Associates, Inc., and was controlled by customized-software written in MedState Notation.\n(§4) Test sessions. A diagram of the Rapid Assessment Procedure is shown in the drawing. Test sessions occurred twice daily beginning at 11 a.m. and 3 p.m. […]"}, "[2]": {"test_system": "rhesus monkeys trained to self-administer cocaine", "assay": "Cocaine self-administration, Rapid Assessment (Rapid Dose Effect) Procedure, cocaine dose-effect curve", "type": "in vivo, rhesus monkeys (Macaca mulatta)", "experimental": "as §1\nNext, the Rapid Assessment Procedure was used to evaluate the effects of a single i.m. dose of test compound on self-administration of a range of unit doses of cocaine within a single experimental session. […] During rapid assessment studies, food-maintained behavior was disrupted in two monkeys and unaffected in the remaining two monkeys, resulting in a >50% decrease in averaged response rates prior to or following sessions of cocaine self-administration.\nas §2, §3, §4"}, "[3]": {"conditions": "32 mg/kg i.m. pretreatment, averaged for the group"}, "[4]": {"conditions": "32 mg/kg i.m., monkeys 96D155, 93N082 and 97D105"}}, "note": "Entries after “also recorded” stand apart in the source; their conditions may differ.", "data": [{"smiles": "NC(=O)OC[C@H](N)Cc1ccccc1", "note": "[test compound, O-carbamoyl-(D)-phenylalaminol]", "values": [{"measurement": "Effect on i.v. cocaine self-administration behavior", "setting": "[1]; 10 mg/kg i.m., any of the four monkeys", "result": "did not alter"}, {"measurement": "Effect on self-administration of the peak unit dose of i.v. cocaine", "setting": "[1]; 10 mg/kg i.m., averaged for the group", "result": "did not have consistent effects; also recorded: without appreciable effect"}, {"measurement": "Food-maintained performance, Food 1 and Food 2", "setting": "[1]; 10 mg/kg i.m., monkeys 89B013 and RQ2215", "result": "unchanged"}, {"measurement": "Food-maintained responding, Food 2", "setting": "[1]; 10 mg/kg i.m., monkeys 96D155 and 93N082", "result": "decreased food-maintained responding"}, {"measurement": "Food-maintained behavior, Food 1", "setting": "[1]; 18 mg/kg i.m., any monkey", "result": "not appreciably affected"}, {"measurement": "Decrease in self-administration of the peak unit dose of i.v. cocaine", "setting": "[1]; 18 mg/kg i.m., monkey 89B013", "result": "approximately 50%"}, {"measurement": "Food-maintained behavior, Food 2", "setting": "[1]; 18 mg/kg i.m., monkeys 89B013 and 93N082", "result": "greatly decreased"}, {"measurement": "Food-maintained behavior, Food 2", "setting": "[1]; 18 mg/kg i.m., monkeys 96D155 and RQ2215", "result": "did not change behavior"}, {"measurement": "Effect on i.v. self-administration behavior", "setting": "[1]; 18 mg/kg i.m., remaining three subjects", "result": "did not appreciably alter"}, {"measurement": "Decrease in self-administration of the peak unit dose of i.v. cocaine", "setting": "[1]; 32 mg/kg i.m. 30 min before session, averaged for the group of monkeys", "result": "approximately 50%"}, {"measurement": "Effect on food-maintained behavior", "setting": "[1]; 32 mg/kg i.m. (18 or 32 mg/kg), prior to or following cocaine components", "result": "without consistently disrupting food-maintained behavior; also recorded: did not consistently alter"}, {"measurement": "Effect on self-administration of the peak unit dose of i.v. cocaine", "setting": "[1]; 32 mg/kg i.m., averaged for the group", "result": "markedly decreased"}, {"measurement": "Reduction of self-administration of the peak unit dose of i.v. cocaine", "setting": "[1]; 32 mg/kg i.m., each of the three monkeys studied", "result": "≥ 50", "unit": "%"}, {"measurement": "Food-maintained performance, Food 1 and Food 2", "setting": "[1]; 32 mg/kg i.m., monkey 93N082", "result": "markedly decreased"}, {"measurement": "Food-maintained responding, either food component", "setting": "[1]; 32 mg/kg i.m., monkeys 96D155 and RQ2215", "result": "did not alter responding"}, {"measurement": "Effect on food-maintained behavior", "setting": "[1]; pretreatment doses 10-32 mg/kg i.m., averaged for the group, dose-ranging studies", "result": "only inconsistent effects"}, {"measurement": "Displacement of the descending portion of the cocaine dose-effect curve", "setting": "[2]; 32 mg/kg i.m.", "result": "leftward and upward displacement"}, {"measurement": "Effect on responding during availability of saline or low unit doses of i.v. cocaine (0.001-0.01 mg/kg)", "setting": "[2]; [3]", "result": "either increased or did not change response rates; also recorded: increased responding"}, {"measurement": "Effect on self-administration of higher unit doses of i.v. cocaine (0.032-0.32 mg/kg)", "setting": "[2]; [3]", "result": "decreased cocaine self-administration behavior"}, {"measurement": "Decrease in food-maintained responding (averaged response rates), Food 1 and Food 2", "setting": "[2]; 32 mg/kg i.m., averaged for the group, rapid assessment", "result": "> 50", "unit": "%"}, {"measurement": "Decrease in food-maintained responding, Food 1", "setting": "[2]; 32 mg/kg i.m., monkey RQ2215", "result": 40, "unit": "%"}, {"measurement": "Responding during availability of saline or unit doses of i.v. cocaine 0.001-0.032 mg/kg/injection", "setting": "[2]; 32 mg/kg i.m., monkey RQ2215", "result": "inconsistently increased"}, {"measurement": "Responding during availability of unit doses of 0.1 and 0.32 mg/kg cocaine", "setting": "[2]; 32 mg/kg i.m., monkey RQ2215", "result": "unchanged"}, {"measurement": "Food-maintained responding, Food 1", "setting": "[2]; 32 mg/kg i.m., monkeys 93N082 and 97D105", "result": "nearly eliminated"}, {"measurement": "Effect on i.v. self-administration during availability of higher unit doses of cocaine", "setting": "[2]; [4]", "result": "reduced i.v. self-administration behavior"}, {"measurement": "Effect on responding during availability of saline or low unit doses of cocaine (0.001-0.01 mg/kg)", "setting": "[2]; [4]", "result": "increased responding"}, {"measurement": "Food-maintained responding, Food 2", "setting": "[2]; [4]", "result": "nearly eliminated"}]}]}
